Measurements as given in patent publication US20190271885A1, “OPTICAL FILM AND METHOD FOR PRODUCING THE SAME, POLARIZING PLATE, AND IMAGE DISPLAY DEVICE” (FUJIFILM Corporation, priority 2016, published 2019).

Assay: Evaluation of wet heat resistance of optical film (change of in-plane retardation Re)
Format: physicochemical
Settings: HB(C6F5)4 used instead of the additive B-1 of Example 1
Protocol: The optical film manufactured in each of Examples and Comparative Examples was left to stand in an environment at a temperature of 65° C. and a humidity of 90% for 500 hours, and the in-plane retardation Re of the optical film before being left to stand in a wet heat environment (initial Re1) and the in-plane retardation Re of the optical film after being left to stand in a wet heat environment (Re1 after standing) were compared to each other to calculate a Re change rate 1.
Furthermore, the Re change rate 1 is calculated by the following equation.
Re change rate 1(%)={(Initial Re1−Re1 after standing)/Initial Re1}×100
Furthermore, a comparative optical film was manufactured without use of an additive of each of Examples and Comparative Examples, and according to the same procedure as above, the in-plane retardation Re of the comparative optical film before being left to stand in a wet heat environment (initial Re2) and the in-plane retardation Re of the comparative optical film after being left to stand in a wet heat environment (Re2 after standing) were compared to each other to calculate a Re change rate 2.
Furthermore, the Re change rate 2 is calculated by the following equation. […]
A difference between the Re change rate 2 and the Re change rate 1 (Re change rate 2-Re change rate 1) was evaluated according to the following standard. […]

Fc1c(F)c(F)c([B-](c2c(F)c(F)c(F)c(F)c2F)(c2c(F)c(F)c(F)c(F)c2F)c2c(F)c(F)c(F)c(F)c2F)c(F)c1F.[H+] [HB(C6F5)4]
Wet heat resistance (in words): the same extent of effects as in Example 1
